# Measured values published in patent publication US20130072424A1, “COMPOUNDS AND METHODS FOR PEPTIDE RIBONUCLEIC ACID CONDENSATE PARTICLES FOR RNA THERAPEUTICS” (MARINA BIOTECH, INC., priority 2005, published 2013).
# Ends that are not written are not given here. Peptide text beside a SMILES is read from it. * marks the point of attachment. 5FAM = O=C1OC2(c3ccc(O)cc3Oc3cc(O)ccc32)c2ccc(C(=O)*)cc21
# Assays:
# [1] = tested on: mouse tail fibroblast (MTF) cells; test: Polypeptide mediated siRNA delivery screen (Cy5-siRNA cell-uptake and MFI), Example 17; type: cell-based; settings: for MFI measurement relative to the PN643 positive control, in words / MFI measurement relative to the positive control: Cy5-conjugated siRNA; for percent siRNA cell-uptake activity (Table 24): Cy5 conjugated LC20 siRNA, concentration not given
# Method: siRNA uptake by cells was assessed by flow cytometry (refer to Example 2 for details). Uptake was expressed as a percentage calculated by dividing the number of cells containing Cy5-conjugated siRNA by the total number of transfected and untransfected cells in culture. Mean Fluorescence Intensity (MFI) was measured by flow cytometry and determined the amount of Cy5-conjugated siRNA found within cells. The MFI value directly correlates with the amount of Cy5-conjugated siRNA within the cell, thus, a higher MFI value indicates a greater number of Cy5-conjugated siRNA within the cells.
# [2] = tested on: human monocytes; test: Cytotoxicity with human monocytes; type: cell-based
# [3] = tested on: hTNF-α mRNA; test: Knockdown of hTNF-α gene expression by siRNA/peptide complexes in LPS-stimulated human monocytes (branch DNA mRNA); type: cell-based; settings: for siRNA Knockdown Activity: 20 nM siRNA; for siRNA knockdown activity of TNF-α mRNA, in words: siRNAs A19S21, 21/21 and LC20
# Method: Specifically, the ability of siRNA/peptide complexes to modulate expression of the human tumor necrosis factor-α (hTNF-α) gene was assessed. The significance of targeting the hTNF-α gene is that it is implicated in mediating the occurrence or progression of rheumatoid arthritis (RA) when over-expressed in human and other mammalian subjects.
# Human monocytes were used as a model system to determine the effect of siRNA/peptide complexes on hTNF-α gene expression. Qneg represents a random siRNA sequence and functioned as the negative control. […] A19S21, 21/21 and LC20 are siRNAs that target hTNF-α mRNA.
# Healthy human blood was purchased from Golden West Biologicals (CA), the peripheral blood mononuclear cells (PBMC) were purified from the blood using Ficoll-Pague plus (Amersham) gradient. Human monocytes were then purified from the PBMCs fraction using magnetic microbeads from Miltenyi Biotech. Isolated human monocytes were resuspended in IMDM supplemented with 4 mM glutamine, 10% FBS, 1× non-essential amino acid and 1× pen-strep, and stored at 4 C until use.
# In a 96 well flat bottom plate, human monocytes were seeded at 100 K/well/100 μl in OptiMEM medium (Invitrogen). Exemplary polynucleotide delivery-enhancing polypeptides were mixed with 20 nM siRNA at a molar ratio of 1 to 5 in OptiMEM medium at room temperature for 5 minutes. At the end of incubation, FBS was added to the mixture (final 3%), and 50 μl of the mixture was added to the cells. The cells were incubated at 37° C. for 3 hours. After incubation, the cells were transferred to V-bottom plate and pelleted at 1500 rpm for 5 min. The cells were resuspended in growth medium (IMDM with glutamine, non-essential amino acid, and pen-strep). After an overnight incubation, the monocytes were stimulated by application of LPS (Sigma) at 1 ng/ml for 3 hours to increase expression of TNF-α expression levels. After induction by LPS, cells were collected as above for mRNA quantification, and supernatant was saved for protein quantification if desired.
# For mRNA measurement, branch DNA technology from Genospectra (CA) was used according to manufacturer's specification. To quantitate mRNA level in the cells, both house keeping gene (cypB) and target gene (TNF-α) mRNA were measured, and the reading for TNF-α was normalized with cypB to obtain relative luminescence unit. […]
# [4] = tested on: primary mouse tail fibroblast (MTF) cells; test: Peptide cell-uptake assay (FITC-labeled peptide, flow cytometry); type: cell-based; settings: peptide 10 μM; for Peptide FITC MFI: relative values
# Method: The efficacy of the full-length and truncated forms of polypeptide PN73 to enter cells was tested in vitro by a cell-uptake assay with primary mouse tail fibroblast (MTF) cells. The number of cells in culture that receive the FITC-labeled peptide was measured by flow cytometry. The percentage peptide cell-uptake was expressed relative to the total number of cells present in the culture. In addition, the Mean Fluorescence Intensity (MFI) was used to evaluate the quantity of FITC-labeled peptide found within cells. MFI directly correlates with the amount of FITC-labeled peptide within the cell: higher relative MFI value correlates with a greater amount of intracellular FITC-labeled peptides. Peptides were evaluated at 0.63 μM, 2.5 μM and 10 μM concentrations; PN768 was tested at 2 μM, 10 μM and 50 μM. […]
# [5] = tested on: mouse tail fibroblast (MTF) cells; test: siRNA cell-uptake assay and MFI (Cy5-conjugated siRNA, flow cytometry), Examples 14-16; type: cell-based; settings: for % siRNA Cell-Uptake / siRNA Cy5 MFI: peptide 10 μM; for siRNA Cy5 MFI: relative values
# Method: As described above, the cell-uptake assay determines the number of cells that receive Cy5-conjugated siRNA when complexed with a peptide. siRNA cell-uptake was assessed by flow cytometry (refer to Example 2 for details). Uptake was expressed as a percentage calculated by dividing the number of cells containing Cy5-conjugated siRNA by the total number of transfected and untransfected cells in culture. Mean Fluorescence Intensity (MFI) was measured by flow cytometry and determined the amount of Cy5-conjugated siRNA found within cells. The MFI value directly correlates with the amount of Cy5-conjugated siRNA within the cell, thus, a higher MFI value indicates a greater number of Cy5-conjugated siRNA within the cells.
# The siRNA cell-uptake assay and MFI measurements were performed as described previously in Examples 2 and 3. […]
# [6] = in vitro; settings: mouse, mouse tail fibroblast (MTF) cells
# Method: Fluorescence activated cell sorting (FACS) analysis were performed using Beckman Coulter FC500 cell analyzer (Fullerton, Calif.). The instrument was adjusted according to the fluorescence probes used (FAM or Cy5 for siRNA and FITC and PE for CD14). Propidium iodide (Fluka, St Louis) and AnnexinV (R&D systems, Minneapolis) were used as indicators for cell viability and cytotoxicity. A brief step-by-step protocol is detailed below. • (a) After exposure to the complex of siRNA/peptide, cells were incubated for at least 3 hours. • (b) Wash cells with 200 μl PBS. • (c) Detach cells with 15 μl TE, incubate at 370 C. • (d) Re-suspend cells in five wells with 30 μl FACS solution (PBS with 0.5% BSA, and 0.1% sodium Azide). • (e) Combine all five wells into a tube. • (f) Add PI (Propidium iodide) 5 μl into each tube. • (g) Analyze the cells with fluorescence activated cell sorting (FCAS) according to manufacturer's instructions.
# For siRNA uptake analysis, cells were washed with PBS, treated with trypsin (attached cells only), and then analyzed by flow cytometry. […] In order to differentiate the cellular uptake from the membrane insertion of fluorescence labeled siRNA, trypan blue was used to quench the fluorescence on the cell membrane surface.
# FITC-tagged peptides were diluted in Opti-MEM® media (Invitrogen) for about 5 minutes at room temperature and then added to cells. Cells were transfected for 3 hours at and washed with PBS, treated with trypsin, and then analyzed by flow cytometry. Cell viability was determined as above. Cellular uptake was distinguished from the membrane insertion using trypan blue to quench any fluorescence on the cell membrane surface.
# [7] = siRNA 21/21 MD8, siRNA:Peptide Ratio 1:5, human monocytes
# [8] = siRNA 21/21 MD8, siRNA:Peptide Ratio 1:10, human monocytes
# [9] = siRNA A19S21 MD8, siRNA:Peptide Ratio 1:5, human monocytes
# [10] = siRNA A19S21 MD8, siRNA:Peptide Ratio 1:10, human monocytes
# [11] = siRNA LC20, siRNA:Peptide Ratio 1:5, human monocytes
# [12] = siRNA LC20, siRNA:Peptide Ratio 1:10, human monocytes
molecule,measurement,setting,value
"KETWWETWWTEWSQPKKKRKV-amide (KETWWETWWTEWSQPKKKRKV-NH2) [PN682, Pep-1]","MFI measurement relative to the PN643 positive control, in words",[1],comparable
RKESYSVYVYKVLKQ-NH2 [PN766],cytotoxicity effects,[2],No cytotoxicity effects were observed
"RQIRIWFQNRRMRWRR-amide (RQIRIWFQNRRMRWRR-NH2) [PN714, PenArg]","MFI measurement relative to the PN643 positive control, in words",[1],significantly lower
same,percent siRNA cell-uptake activity (Table 24),[1],43%
"GTAMRILGGVIPRKKRRQRRRPPQ-amide (GTAMRILGGVIPRKKRRQRRRPPQ-NH2) [PN734, m-Calpain + TAT]","MFI measurement relative to the PN643 positive control, in words",[1],significantly lower
"RKKRRQRRRPPVAYISRGGVSTYYSDTVKGRFTRQKYNKRA-amide (RKKRRQRRRPPVAYISRGGVSTYYSDTVKGRFTRQKYNKRA-NH2) [PN760, TAT + Peptide P3a]",MFI measurement relative to the positive control,[1],approximately 13 fold
"RSVCRQIKICRRRGGCYYKCTNRPY-amide (RSVCRQIKICRRRGGCYYKCTNRPY-NH2; cysteine pairing not given here) [PN680, Androctonin]","MFI measurement relative to the PN643 positive control, in words",[1],comparable
same,"hTNF-α mRNA knockdown relative to the Qneg/PN680 control complex, in words",[3]; any of the hTNF-α specific siRNAs at a 1:5 ratio,significant knockdown activity
same,siRNA Knockdown Activity,[3]; [7],+ (the peptide/siRNA complex had knockdown activity of 80% of the Qneg negative control siRNA (20% reduction in mRNA levels compared to the Qneg negative control))
same,siRNA Knockdown Activity,[3]; [8],+/− (the peptide/siRNA complex had a knockdown activity of approximately 90% of the Qneg negative control siRNA (10% reduction in mRNA levels compared to the Qneg negative control))
same,siRNA Knockdown Activity,[3]; [9],+ (the peptide/siRNA complex had knockdown activity of 80% of the Qneg negative control siRNA (20% reduction in mRNA levels compared to the Qneg negative control))
same,siRNA Knockdown Activity,[3]; [10],+/− (the peptide/siRNA complex had a knockdown activity of approximately 90% of the Qneg negative control siRNA (10% reduction in mRNA levels compared to the Qneg negative control))
same,siRNA Knockdown Activity,[3]; [11],+ (the peptide/siRNA complex had knockdown activity of 80% of the Qneg negative control siRNA (20% reduction in mRNA levels compared to the Qneg negative control))
same,siRNA Knockdown Activity,[3]; [12],+ (the peptide/siRNA complex had knockdown activity of 80% of the Qneg negative control siRNA (20% reduction in mRNA levels compared to the Qneg negative control))
LGLLLRHLRHHSNLLANIPRKKRRQRRRPP-amide (LGLLLRHLRHHSNLLANIPRKKRRQRRRPP-NH2) [PN759],MFI measurement relative to the positive control,[1],~6 fold
KRSRKESYSVYVYKVLKQ-GK[EPSILON-5CFG-amide (KRSRKESYSVYVYKVLKQG-{K(5CF)-Gly-NH2}) [PN654],"siRNA knockdown activity of TNF-α mRNA, in words",[3]; human monocytes,moderate knockdown activity for both the A19S21 and 21/21 siRNAs but not for the LC20 siRNA
same,% Peptide Cell-Uptake,[4],95 (10 μM) %
same,Peptide FITC MFI,[4],10 (10 μM)
same,% siRNA Cell-Uptake,[5],27 (10 μM) %
same,siRNA Cy5 MFI,[5],14 (10 μM)
"RQIKIWFQNRRMKWKK-amide (RQIKIWFQNRRMKWKK-NH2) [PN694, Penetratin]","MFI measurement relative to the PN643 positive control, in words",[1],significantly lower
same,percent siRNA cell-uptake activity (Table 24),[1],54%
"KKKKKRFSFKKSFKLSGFSFKKNKK-amide (KKKKKRFSFKKSFKLSGFSFKKNKK-NH2) [PN681, MARCKS]","MFI measurement relative to the PN643 positive control, in words",[1],double
same,"hTNF-α knockdown relative to Qneg complexed with the same polypeptide, in words","[3]; all three siRNAs, ratios of 1:5 and 1:10, human monocytes",little to no knockdown activity
same,siRNA Knockdown Activity,[3]; [7],−
same,siRNA Knockdown Activity,[3]; [8],−
same,siRNA Knockdown Activity,[3]; [9],+/− (the peptide/siRNA complex had a knockdown activity of approximately 90% of the Qneg negative control siRNA (10% reduction in mRNA levels compared to the Qneg negative control))
same,siRNA Knockdown Activity,[3]; [10],+/− (the peptide/siRNA complex had a knockdown activity of approximately 90% of the Qneg negative control siRNA (10% reduction in mRNA levels compared to the Qneg negative control))
same,siRNA Knockdown Activity,[3]; [11],−
same,siRNA Knockdown Activity,[3]; [12],−
CC(C)C[C@H](NC(=O)[C@@H](NC(=O)[C@H](CCCCN)NC(=O)[C@H](Cc1ccc(O)cc1)NC(=O)[C@@H](NC(=O)[C@H](Cc1ccc(O)cc1)NC(=O)[C@@H](NC(=O)[C@H](CO)NC(=O)[C@H](Cc1ccc(O)cc1)NC(=O)[C@H](CO)NC(=O)[C@H](CCC(=O)O)NC(=O)[C@H](CCCCN)NC(=O)[C@@H](N)CCCNC(=N)N)C(C)C)C(C)C)C(C)C)C(=O)N[C@@H](CCCCN)C(=O)N[C@@H](CCC(N)=O)C(=O)NCC(=O)N[C@@H](CCCCNC(=O)c1ccc2c(c1)C(=O)OC21c2ccc(O)cc2Oc2cc(O)ccc21)C(=O)NCC(N)=O [PN708] (H-RKESYSVYVYKVLKQGK(5FAM)G-NH2),KD,"[3]; knockdown of hTNF-α mRNA vs Qneg, siRNAs A19S21, 21/21, LC20 at 20 nM, molar ratio 1 to 5, human monocytes",+ (the peptide/siRNA complex had knockdown activity of 80% of the Qneg negative control siRNA (20% reduction in mRNA levels compared to the Qneg negative control))
same,"siRNA knockdown activity of TNF-α mRNA, in words",[3]; human monocytes,no observable knockdown activity
same,viability at 3 h,[6],> 90%
same,% Peptide Cell-Uptake,[4],97 (10 μM) %
same,Peptide FITC MFI,[4],10 (10 μM)
same,amount of Cy5-siRNA delivered into cells compared to the full-length PN73 (PN690) peptide,[5],about doubled
same,maximum siRNA cell-uptake activity,"[5]; Cy5-LC20 siRNA, PN708 at 80 μM",95%
same,% siRNA Cell-Uptake,[5],42 (10 μM) %
same,siRNA Cy5 MFI,[5],34 (10 μM)
